Experiment [1] addresses T1, Fatty acid synthase (Plasmodium falciparum) (UniProt Q965D7).
T1 sequence (whole entry): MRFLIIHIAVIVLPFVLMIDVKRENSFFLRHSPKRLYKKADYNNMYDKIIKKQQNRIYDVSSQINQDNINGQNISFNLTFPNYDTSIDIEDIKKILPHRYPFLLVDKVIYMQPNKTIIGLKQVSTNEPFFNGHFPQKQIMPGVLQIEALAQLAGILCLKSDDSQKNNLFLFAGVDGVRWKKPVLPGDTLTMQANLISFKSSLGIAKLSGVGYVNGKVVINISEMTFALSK
In words: Inhibition of Plasmodium falciparum FabZ assessed as trans-2-octenoyl-acyl carrier protein level by MALDI-TOF mass spectrometry.

Experiment [2] relates to Plasmodium falciparum. In words: Antiparasitic activity against Plasmodium falciparum. It is filed as functional, organism-based.
Experiment [3] relates to Plasmodium falciparum. Briefly: Inhibition of Plasmodium falciparum FabB/FabF assessed as C6-acyl carrier protein level by MALDI-TOF mass spectrometry.
Experiment [4] is described as follows: Inhibition of Plasmodium falciparum recombinant FabI A217V mutant.
Experiment [5] relates to Plasmodium falciparum. Briefly: Antiparasitic activity against Plasmodium falciparum in RBCs. The class given is functional, organism-based.
Experiment [6] addresses T2, Enoyl-acyl-carrier protein reductase (Plasmodium falciparum, UniProt Q965D5).
T2 sequence (Q965D5 whole entry): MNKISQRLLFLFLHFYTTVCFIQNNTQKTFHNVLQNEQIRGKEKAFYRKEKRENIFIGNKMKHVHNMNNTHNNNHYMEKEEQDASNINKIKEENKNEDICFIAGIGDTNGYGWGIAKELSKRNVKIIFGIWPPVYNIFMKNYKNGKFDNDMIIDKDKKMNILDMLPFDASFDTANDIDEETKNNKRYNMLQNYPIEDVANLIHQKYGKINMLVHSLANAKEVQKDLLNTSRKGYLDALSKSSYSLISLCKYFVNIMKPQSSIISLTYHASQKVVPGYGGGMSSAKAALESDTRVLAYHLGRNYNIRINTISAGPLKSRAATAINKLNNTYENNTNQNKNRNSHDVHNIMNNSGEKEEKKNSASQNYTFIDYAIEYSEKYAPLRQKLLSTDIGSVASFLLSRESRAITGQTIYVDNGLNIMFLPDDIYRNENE
Briefly: Inhibition of Plasmodium falciparum recombinant FabI.

Structures are written as SMILES. Active and inactive are the calls of the source. No cut-off for these calls is given here.

As to `O=C(CC(=O)C(F)(F)F)c1ccc([N+](=O)[O-])cc1`, the result in experiment [1] was Active.
By IC50 is commonly meant the concentration that gives 50% inhibition. Turning to `C/C=C/C/C=C/CCC(=O)[C@H]1O[C@H]1C(N)=O` [CERULENIN], the IC50 in the experiment on Plasmodium falciparum [2] was determined as 20000 nM. For the same compound, the result in the experiment on Plasmodium falciparum [3] was Active.
What is called Ki is the equilibrium dissociation constant of an inhibitor or competing ligand from its target. As to `Oc1cc(Cl)ccc1Oc1ccc(Cl)cc1Cl` [TRICLOSAN], in experiment [4], the Ki was determined as 232 nM. Besides, the half-inhibitory concentration (IC50) with Plasmodium falciparum [5] came to 700 nM; in experiment [6], 70 nM.
Consider `Oc1ccc(Cl)cc1Oc1ccc(Cl)c2cccnc12`, for which the outcome in experiment [1] was Active.
